Measured values taken from patent US12697321B2, “Kv1.3 antagonists for use in the treatment of chronic and acute pain” (SEA4US—BIOTECNOLOGIA E RECURSOS MARINHOS, LDA., priority 2019, dated 2026).
Counter-ions that a name gives are not always drawn.

Key:
[1] = system: K^+ currents recorded from a small diameter neuron isolated from a dorsal-root ganglion of the 'affected' side of a CCI rat; assay: Voltage dependence of steady-state inactivation of K+ currents, sdDRG neuron of CCI rat; conditions: CCI rat 28 days after surgery
[2] = system: CCI rats (chronic constriction of the sciatic nerve of Wistar rats); conditions: for efficacy for short-term/acute and long-term/chronic neuropathic pain: intravenous administration
[3] = system: K^+ currents from sdTGNs; assay: Whole-cell voltage-clamp of K+ currents in small diameter trigeminal ganglion neurons; conditions: dose dependent manner
[4] = target: T1, hKv1.3 (Homo sapiens, UniProt P22001); assay: Whole-cell voltage-clamp on cell lines expressing Kv1.x channels (nitenin); assay type: cell-based
T1 construct: expressed in transfected cells
Description: In the context of this disclosure, “affinity” relates to the effect on the activity of such channel. Affinity can be measured by voltage clamp recordings of currents evoked by cells that express solely that given channel.
Voltage-clamp recordings under the whole-cell configurations were/are used to measure the ‘amount of inhibition’ of the whole-cell current evoked by a given channel expressed in non-excitable cell lines. Dose responses are obtained by measuring such inhibitions per each concentration. Voltage-activated K+ currents were evoked from mammalian cell lines expressing Kv1.1, Kv1.2, Kv1.3, Kv1.4, Kv1.5, kv1.6 or kv1.7 using standard voltage protocols (Schmitz et al., 2005; Vennekamp et al.).

T1 sequence (P22001 whole entry): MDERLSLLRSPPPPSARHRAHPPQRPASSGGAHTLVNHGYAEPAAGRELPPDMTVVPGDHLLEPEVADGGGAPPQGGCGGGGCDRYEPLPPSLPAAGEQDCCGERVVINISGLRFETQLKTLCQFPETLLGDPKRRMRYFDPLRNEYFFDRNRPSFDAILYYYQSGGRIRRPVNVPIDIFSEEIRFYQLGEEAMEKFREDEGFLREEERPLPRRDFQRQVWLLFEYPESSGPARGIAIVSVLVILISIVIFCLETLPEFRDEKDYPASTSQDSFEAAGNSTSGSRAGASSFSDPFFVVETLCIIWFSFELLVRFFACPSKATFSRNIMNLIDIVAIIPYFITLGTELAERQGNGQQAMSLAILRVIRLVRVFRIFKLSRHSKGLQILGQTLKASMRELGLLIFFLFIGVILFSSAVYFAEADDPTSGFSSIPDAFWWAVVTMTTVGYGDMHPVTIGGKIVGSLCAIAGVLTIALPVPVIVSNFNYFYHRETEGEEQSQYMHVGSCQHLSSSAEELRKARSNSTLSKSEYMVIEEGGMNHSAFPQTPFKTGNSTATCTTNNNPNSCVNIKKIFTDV

| SMILES | Vh1 (voltage of half maximum current, component 1) of steady-state inactivation ([1]; PAP-1 2 nM, control Vh1=−90.1 mV) [mV] | Vh2 (voltage of half maximum current, component 2) of steady-state inactivation ([1]; PAP-1 2 nM, control Vh2=−27.8 mV) [mV] | efficacy for short-term/acute and long-term/chronic neuropathic pain [2] | effect on K+ currents from sdTGNs [3] | Vh1 (voltage of half maximum current, component 1) of steady-state inactivation ([1]; nitenin 0.29 μM, control Vh1=−73.3 mV) [mV] | Vh2 (voltage of half maximum current, component 2) of steady-state inactivation ([1]; nitenin 0.29 μM, control Vh2=−26.3 mV) [mV] | IC50 [4] [nM] | mechanical sensitivity of the ipsilateral leg at maximum effect ([2]; nitenin IV, estimated plasma concentration 1 μg/ml, 26 days after surgery, Von Frey) | Vh1 (voltage of half maximum current, component 1) of steady-state inactivation ([1]; AM92016 hidrochloride 40 nM, control Vh1=−71.3 mV) [mV] | Vh2 (voltage of half maximum current, component 2) of steady-state inactivation ([1]; AM92016 hidrochloride 40 nM, control Vh2=−28.2 mV) [mV] |
| --- | --- | --- | --- | --- | --- | --- | --- | --- | --- | --- |
| O=c1ccc2c(OCCCCOc3ccccc3)c3ccoc3cc2o1 [PAP-1, 5-(4-Phenoxybutoxy)psoralen] | −101.7 | −32.6 | effective | inhibit the K^+ currents |  |  |  |  |  |  |
| O=c1ccc2c(OCCCCc3ccccc3)c3ccoc3cc2o1 [PSORA-4, 4-(4-Phenylbutoxy)-7H-furo[3,2-g][1]benzopyran-7-one] |  |  | effective | inhibit the K^+ currents |  |  |  |  |  |  |
| C/C(=C\C1C/C(=C/CCc2ccoc2)C(=O)O1)CCCc1ccoc1 (stereo not shown) [nitenin] |  |  | effective | inhibit the K^+ currents | −95.3 | −47.0 | ~190 | in some instances similar to those obtained during baseline |  |  |
| CN(CCc1ccc(Cl)c(Cl)c1)CC(O)COc1ccc(NS(C)(=O)=O)cc1 (stereo not shown) [AM92016 hydrochloride] |  |  | effective | inhibit the K^+ currents |  |  |  |  | −93.63 | −33.6 |
